Measurements as given in patent US11266086B2, “Efficient plant transformation method” (Wisconsin Alumni Research Foundation, priority 2018, dated 2022).

What was measured:
Format in all cases: in vivo
[1] = test system: soybean VAEs; assay: Agrobacterium-mediated transformation of soybean meristem explants / VAEs with TDZ in co-culture
Experimental: Soybean seeds were surface sanitized in 20% Clorox (from concentrated Clorox with 8.25% sodium hypochlorite) for 5 minutes, rinsed 5× with sterile RO water, and then primed by allowing them to sit for 2 hrs at room temperature. Seeds were then imbibed in WCIC Bean Germination Media (BGM) overnight. Meristem explants were prepared the next day by removing seed coats and cotyledons from the seed using either a manual process or in a wet mill consisting of a series of rollers and spray nozzles. Meristem explants were then either dried under a variety of conditions, or used fresh. Drying of explants was performed in either a Laminar Flow Hood (LFH) with explants resting on a filter paper exposed to air, or in a BryAir seed dryer (model VFB-3-E-DXA) on filter paper. For internal moisture determination, 0.5-1 g of dried material was placed in a 103 C oven for 16-18 hours, contents allowed to cool, then re-weighed. For use in transformation, dried explants—designated as soy VAEs (value added explants) were incubated 1-2 hours at room temperature in 20% PEG4000 (dissolved in sterile distilled water) supplemented with 60 mg/L Captan fungicide and 30 mg/L Bravo (Daconil) fungicide. Explants were then rinsed 5-6× with sterile distilled water and inoculated with Agrobacterium. […] FIGS. 3A and 3B show VAEs (3A) as compared to explants directly from just dry seed (3B).
Agrobacterium inoculum was prepared under laminar flow hood from overnight cultures derived from 20% glycerol stocks stored at −80 C. Glycerol stocks were allowed to thaw, and approximately 50 ul stock was added to 50 ml LB with 50 mg/L kanamycin (GV3101 strain); or 250 ul stock to 50 ml LB with 50 ppm kanamycin and 100 ppm carbenicillin (AGL1 strain). The VS225 binary construct with pVS1 origin of replication conferred resistance to kanamycin, and had aadA, gus, and cas9 genes on its T-DNA. The pWI-1000 binary construct with pVS1 origin of replication conferred resistance to kanamycin, and had aadA and gus on its T-DNA. The pWI-1000 dsRED binary construct with pVS1 origin of replication conferred resistance to kanamycin, and had aadA, gus, and rfp (dsRED) on its T-DNA. Cultures were grown overnight at 28° C. 200 RPM on orbital shaker (Innova 4400 incubator shaker). The next morning optical densities of cultures at 660 nm (OD660) were checked (Hach DR5000™ Spectrophotometer) under laminar flow and then centrifuged at 2619×g for 20 min (H6000A rotor on Sorvall® RC3B centrifuge). Pelleted bacteria was re-suspended in WCIC INO media under laminar flow, diluted to OD660 0.3-0.45, and incubated at room temperature 150 RPM until used (VWR orbital shaker). In some experiments acetosyringone was added to inoculum at 100 uM to help induce the vir operon.
Meristem explants were inoculated under laminar flow in inverted PlantCon® (approximately 25 ml inoculum per PlantCon®) (MP Biomedicals, LLC Cat. 26-722-06) and sonicated for 20 s, 45+/−2 kHz (L&R Sonicator Quantrex 450) in a 0.1% Triton X-100 water bath (Triton X-100 from Sigma #9002-93-1). Inoculated explants were incubated with inoculum for additional 30 min at room temperature at 75 RPM. Excess inoculum was then removed, and explants co-cultured in PlantCons® with 2.5 ml WCIC INO media supplemented with 50 mg/L nystatin, 10 mg/L TBZ, and 95 uM lipoic acid at 23 C 16/8 photoperiod. In some experiments this co-culture media was further supplemented with 1 mg/L TDZ in attempt to multiply meristematic cells and possibly suppress apical dominance. In some experiments acetosyringone was added to inoculum and/or co-culture medium at 100 uM as an inducing agent for the virulence cascade in the vir operon.
After co-culture (3-5 days) explants were transferred to 200 ppm spectinomycin WCIC B5 media. When using the GV3101 strain we supplemented this selection media with 200-400 mg/L carbenicillin to knock Agrobacterium overgrowth down. […]

[2] = test system: soybean VAEs; assay: Particle bombardment of soybean VAEs with Dicot Bomb 9 and glyphosate selection; details: for TF / Rooting Shoots: BOMB 9, glyphosate selection
Experimental: For particle bombardment experiments, gold-DNA “bead prep” was prepared by first washing 50 mg 0.6 um gold microcarriers (BioRad part #1652262) in 1 ml 100% ethanol and sonicating for 1 min 45 kHz. Gold was pelleted by centrifugation at 5000 rpm in microfuge (˜2300×g) and ethanol removed. Gold was then re-suspended in 1 ml 100% ethanol and stored at −20 C until use. To precipitate DNA onto beads, the 50 mg gold/1 ml ethanol stock was sonicated for 1 min 45 kHz. 42 ul of this stock was transferred to an Eppendorf tube, then pelleted by centrifugation at 2500 rpm for 10 seconds, after which ethanol was removed. 500 uL sterile water was added and mixture sonicated 1 min 45 kHz. Gold was again pelleted by centrifugation at 2500 rpm for 10 seconds and water removed. 25 ul sterile water was then added, followed by sonication for 1 min 45 kHz. 2.6, 1.3, or 0.65 ug VS225 DNA was added, then sterile water to bring volume up to 245 ul. 250 ul cold 2.5 M CaCl2 was added, followed by 50 ul 0.1 M spermidine. Solution was mixed by low speed vortexing. Tube was incubated on ice for approximately 1 hour with gentle inversions every 5-10 minutes. DNA/gold was pelleted at 1000 rpm (˜100×g) for 2 min and supernatant removed. Pellet was then washed with 1 ml 100% EtOH w/pipette tip, then pelleted again at 1000 rpm (˜100×g) for 2 min and supernatant removed 36 ul 100% EtOH was added to tube and gold completely re-suspended with low-speed vortexing. Bead prep was stored at −20 C until used, with 5 ul used per bombardment. This corresponds to 360, 180, or 90 ng DNA per blast; 290 ug gold per blast (1.2, 0.6, or 0.3 ng DNA per ug gold).
For blasting Soybean VAEs, meristem explants were incubated in 20% PEG4000 with 60 mg/L Captan and 30 mg/L Bravo for 1 hour, rinsed thoroughly, and pre-cultured overnight on WCIC EJW1 media at 28 C 16/8 photoperiod.
After preculture, Soybean VAEs were targeted on a 12% xantham gum holding media, 20 per plate, with meristems oriented upward. Prior to particle bombardment on the PDS-1000 helium gun, stop screens (BioRad part 1652336), 1350 psi rupture disks (BioRad 1652330), and macrocarrier holders (BioRad part 1652322) were sanitized for 1 min in 70% EtOH. Carrier sheets (BioRad part 1652335) were sanitized for 1 min in isopropanol. 1350 psi rupture disk was placed into the rupture disk retaining cap and screwed into the gas acceleration chamber. Stop screen was placed in the brass adjustable nest. 5 uL bead prep was deposited on the center of each carrier sheet loaded onto the macrocarrier holder and allowed to air dry. Macrocarrier holder was then turned over to place above retaining screen on brass nest. Macrocarrier cover lid was screwed on and completed macrocarrier launch assembly was placed on shelf directly under rupture disk. Gap distance between rupture disk and launch assembly was approximately 1 cm. Lid from target plate was removed and plate was placed on shelf 2 (2nd shelf from macrocarrier launch assembly) which is approximately 6 cm from assembly. Helium tank, PDS-1000, and vacuum were all turned on. Door was closed and vacuum applied to ˜27-28 In Hg. Fire button was depressed and held down until blast was complete. Vacuum was then released and target plate removed.
After blasting, soybean VAEs were detargeted onto WCIC EJW1 media and allowed to rest overnight at 28 C 16/8 photoperiod. Explants were then placed on WCIC Spectinomycin Selection Medium and placed in 28 C 16/8 photoperiod.
Alternate selectable markers for soybean VAE transformation—We applied soybean VAE technology to glyphosate selection, and were able to recover T0 plants from particle bombardment using Dicot Bomb 9 (FIG. 29) and the Goosegrass EPSP; where the explants were selected on 75 uM glyphosate; then rooted on 25 uM glyphosate. […] Our glyphosate selection work focused on reducing this cytokinin load during the preculture/rest phase. The T0 rooted shoots tested positive for GUS and RFP (tdTomato).

[3] = test system: non-inoculated soybean VAEs; assay: Spectinomycin selection titration on non-inoculated soybean VAEs; details: at 5 weeks
From the text: We ran a titration of spectinomycin selection levels on non-inoculated soybean VAEs, and could see visible bleaching and suppression of shooting and rooting as low as 50 ppm at 5 weeks (FIG. 5).

With O=C(Nc1ccccc1)Nc1cnns1 [TDZ, thidiazuron] the TF ([1]; VAE batch S16b, 5 h dry in 20 C Bryair to 8.3% moisture, 3025N, TDZ in co-culture) was 0.6%, the “# T0 Plants” value ([1]; VAE batch S16b, 5 h dry in 20 C Bryair to 8.3% moisture, 3025N, TDZ in co-culture, 162 explants) was 1 and the TF ([1]; VAE batch S18, 6 h dry in 20 C Bryair to 27% moisture, LD10-30087, TDZ in co-culture) was 1.4%. For the same compound, the “# T0 Plants” value ([1]; VAE batch S18, 6 h dry in 20 C Bryair to 27% moisture, LD10-30087, TDZ in co-culture, 74 explants) was 1, the TF ([1]; VAE batch S19, 6 h dry in 20 C Bryair to 21% moisture, LD10-30092, TDZ in co-culture) was 3.3% and the “# T0 Plants” value ([1]; VAE batch S19, 6 h dry in 20 C Bryair to 21% moisture, LD10-30092, TDZ in co-culture, 91 explants) was 3. The TF ([1]; VAE batch S20, 6 h dry in 20 C Bryair to 18% moisture, LD10-30094, TDZ in co-culture) was 1.2%, the “# T0 Plants” value ([1]; VAE batch S20, 6 h dry in 20 C Bryair to 18% moisture, LD10-30094, TDZ in co-culture, 85 explants) was 1 and the TF ([1]; VAE batch S26, 6 h dry in 20 C Bryair, W82, TDZ in co-culture (Table 12)) was 4.4%. The “# T0 Plants” value ([1]; VAE batch S26, 6 h dry in 20 C Bryair, W82, TDZ in co-culture, 182 explants (Table 12)) was 8, the TF ([1]; VAE batch S27, 5 h dry in 20 C Bryair, 3849N, TDZ in co-culture) was 2.1% and the “# T0 Plants” value ([1]; VAE batch S27, 5 h dry in 20 C Bryair, 3849N, TDZ in co-culture, 289 explants) was 6. For the same compound, the TF ([1]; W82 VAEs, 20 C Bryair 5.5 h, 1 ppm TDZ in co-culture, second set of replicates) was 3.2%, the “# T0 Plants” value ([1]; W82 VAEs, 20 C Bryair 5.5 h, 1 ppm TDZ in co-culture, second set of replicates, 126 explants) was 4 and the TF ([1]; W82 VAEs, 20 C Bryair 6 h, 1 ppm TDZ in co-culture, first set of replicates (Table 13b)) was 5.5%. The “# T0 Plants” value ([1]; W82 VAEs, 20 C Bryair 6 h, 1 ppm TDZ in co-culture, first set of replicates (Table 13b), 182 explants) was 10, the TF ([1]; W82 VAEs, LFH 20.5 h, 1 ppm TDZ in co-culture, second set of replicates) was 2.1% and the “# T0 Plants” value ([1]; W82 VAEs, LFH 20.5 h, 1 ppm TDZ in co-culture, second set of replicates, 144 explants) was 3. The TF ([1]; W82 VAEs, various drying conditions, 1 ppm TDZ in co-culture, summary of replicates) was 3.8%, the “# R0 Plants” value ([1]; W82 VAEs, various drying conditions, 1 ppm TDZ in co-culture, summary of replicates, 452 explants) was 17 and the TF ([1]; freshly excised Williams82, fresh sample of explants dried to generate S17 series, TDZ 1 mg/L in co-culture) was 12.6%. The “# T0 Plants” value ([1]; freshly excised Williams82, fresh sample of explants dried to generate S17 series, TDZ 1 mg/L in co-culture, 95 explants) was 12, the “effect of TDZ in co-culture on transformation” value ([1]; freshly excised soy meristem explants (S17 series), TDZ 1 mg/L in co-culture) was “apparent benefit” and the TF ([2]; preculture EJW1 (1 ppm TDZ), rest EJW0 (no PGRs)) was 0.4%. The “Rooting Shoots” value ([2]; preculture EJW1 (1 ppm TDZ), rest EJW0 (no PGRs), 264 initial explants) was 1, the TF ([2]; preculture and rest EJW3 (0.5 ppm TDZ)) was 0.5% and the “Rooting Shoots” value ([2]; preculture and rest EJW3 (0.5 ppm TDZ), 387 initial explants) was 2.
For CN[C@@H]1[C@H](O)[C@H](NC)[C@H]2O[C@@]3(O)C(=O)C[C@@H](C)O[C@H]3O[C@@H]2[C@H]1O [spectinomycin], the “lowest spectinomycin level with visible bleaching and suppression of shooting and rooting” value [3] was 50 ppm.
In the case of O=C(O)CNCP(=O)(O)O [glyphosate], the “plant recovery with glyphosate selection” value ([2]; preculture and resting media conditions of the spectinomycin protocol (EJW1 with TDZ), particle bombardment) is reported as “yielded no plants”.
In the case of c1ccc(CNc2ncnc3nc[nH]c23)cc1 [BAP, 6-benzylaminopurine], the TF ([2]; preculture and rest OR (3 ppm BAP)) is reported as 0.3% and the “Rooting Shoots” value ([2]; preculture and rest OR (3 ppm BAP), 380 initial explants) is reported as 1.
